In assay [1] the target is PD-L1 His protein / PD-1 Fc protein (Homo sapiens (Human), UniProt Q9NZQ7). As to the kind of experiment: HTRF Assay (PD-1/PD-L1 interaction). Particulars: PD-L1 His 6 nM, PD-1 Fc 6 nM. Type of assay: binding.
For a further assay, the target named is human PD-L1 (Homo sapiens (Human), UniProt Q9NZQ7). Nature of the assay: T cell activation luciferase reporter cell culture system (T Cell Activation Assay). Particulars: luciferase reporter assay; PD-L1 aAPC/CHO-K1 cells with PD-1 effector Jurkat T cells. Type of assay: cell-based. A general note: In a reporter assay the amount or activity of a reporter protein is the signal.

Molecules are shown by their SMILES. pEC50, pIC50: −log10 of the molar value.

PD-L1 His protein / PD-1 Fc protein, sequence (Q9NZQ7 19-238): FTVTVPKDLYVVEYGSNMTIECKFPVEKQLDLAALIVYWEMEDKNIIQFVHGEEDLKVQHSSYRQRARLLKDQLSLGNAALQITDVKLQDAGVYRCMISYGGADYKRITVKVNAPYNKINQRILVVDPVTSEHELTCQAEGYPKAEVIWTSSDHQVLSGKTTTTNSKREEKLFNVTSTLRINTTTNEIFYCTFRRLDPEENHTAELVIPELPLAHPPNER
human PD-L1, sequence (Q9NZQ7 19-290): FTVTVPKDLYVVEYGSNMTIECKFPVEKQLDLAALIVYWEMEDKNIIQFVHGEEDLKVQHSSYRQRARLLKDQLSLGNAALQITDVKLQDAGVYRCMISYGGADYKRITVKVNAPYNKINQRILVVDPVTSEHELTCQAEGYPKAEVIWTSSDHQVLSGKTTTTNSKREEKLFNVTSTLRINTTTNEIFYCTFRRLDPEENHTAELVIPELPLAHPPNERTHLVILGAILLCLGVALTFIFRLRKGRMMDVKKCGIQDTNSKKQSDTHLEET

The term pIC50 denotes the IC50 on a negative log10 scale, so that one unit is a factor of ten. Lower therefore signals a high IC50. One may read the pEC50 as the negative decadic logarithm of the EC50, by convention in mol/L. Read a low pEC50 as a high EC50. Compound `COc1nc(-c2cccc(-c3ccnc(-c4cc(OC)c5nc(CN6CC7(C6)CN(C(C)=O)C7)cn5c4)c3Cl)c2Cl)ccc1CNC[C@@H]1CCC(=O)N1` [Example 319, (S)-5-((((6-(3-(2-(2-((6-Acetyl-2,6-diazaspiro[3.3]heptan-2-yl)methyl)-8-methoxyimidazo[1,2-a]pyridin-6-yl)-3-chloropyridin-4-yl)-2-chlorophenyl)-2-methoxypyridin-3-yl)methyl)amino)methyl)pyrrolidin-2-one] had a pIC50 in assay [1] of 9.11. The compound further showed a pEC50 at human PD-L1 of 7.42.

As to `COc1nc(-c2ccnc(-c3cccc4c3CC[C@@H]4Oc3nc(OC)c(CNC4CCN(C(C)=O)CC4)cc3C(F)(F)F)c2Cl)ccc1CN1CC2(CNC(=O)C2)C1` [Example 551, (S)-2-((2′-(1-((5-(((1-Acetylpiperidin-4-yl)amino)methyl)-6-methoxy-3-(trifluoromethyl)pyridin-2-yl)oxy)-2,3-dihydro-1H-inden-4-yl)-3′-chloro-6-methoxy-[2,4′-bipyridin]-5-yl)methyl)-2,6-diazaspiro[3.4]octan-7-one], in assay [1], the pIC50 is 9.49. Further, on human PD-L1, the pEC50 was 6.74.

`COc1cc(-c2nccc(-c3cccc(-c4ccc5c(CN(C)C6CCN(C(C)=O)CC6)cn(C)c5n4)c3Cl)c2Cl)ccc1CNC1CCOCC1` [Compound 600, 1-(4-(((6-(2-Chloro-3-(3-chloro-2-(3-methoxy-4-(((tetrahydro-2H-pyran-4-yl)amino)methyl)phenyl)pyridin-4-yl)phenyl)-1-methyl-1H-pyrrolo[2,3-b]pyridin-3-yl)methyl)(methyl)amino)piperidin-1-yl)ethan-1-one] had a pIC50 in assay [1] of 9.60. Further, the pEC50 on human PD-L1 is 7.49.

Turning to `COc1cc(-c2nccc(-c3cccc(NC(=O)c4ccc(CNC[C@H](C)O)cn4)c3C)c2Cl)ccc1CNC[C@H](C)O` [Example 650, N-(3-(3-Chloro-2-(4-((((S)-2-hydroxypropyl)amino)methyl)-3-methoxyphenyl)pyridin-4-yl)-2-methylphenyl)-5-((((S)-2-hydroxypropyl)amino)methyl)picolinamide], the pIC50 in assay [1] is 10.00. The compound also gave a negative-log EC50 (pEC50) on human PD-L1 of 6.84.

In the case of `COc1cc(-c2nccc(-c3cccc(-c4ccc(CN5CCC(O)CC5)c(OC)n4)c3Cl)c2Cl)ccc1CN1CC2(CCN(C(C)=O)C2)C1` [Example 693, 1-(2-(4-(3-Chloro-4-(2-chloro-3-(5-((4-hydroxypiperidin-1-yl)methyl)-6-methoxypyridin-2-yl)phenyl)pyridin-2-yl)-2-methoxybenzyl)-2,6-diazaspiro[3.4]octan-6-yl)ethan-1-one], the negative logarithm of the IC50 (pIC50) in assay [1] is 9.15. At human PD-L1, this compound had a pEC50 of 7.58.

As to `COc1cc(-c2nccc(-c3cccc(-c4ccc(CN5CC6(CNC(=O)C6)C5)c(OC)n4)c3Cl)c2Cl)cc2c1CN(CC1(C(=O)O)CC1)CC2` [Example 297, 1-((6-(3-Chloro-4-(2-chloro-3-(6-methoxy-5-((7-oxo-2,6-diazaspiro[3.4]octan-2-yl)methyl)pyridin-2-yl)phenyl)pyridin-2-yl)-8-methoxy-3,4-dihydroisoquinolin-2(1H)-yl)methyl)cyclopropane-1-carboxylic acid], the pIC50 in assay [1] was 9.54. The same compound showed a negative logarithm of the EC50 (pEC50) on human PD-L1 of 6.37.

On to `COc1nc(-c2cccc(-c3ccnc(-c4ccc5c(CNC6CCN(C(C)=O)CC6)cn(C)c5c4)c3Cl)c2Cl)ccc1CNC[C@@H]1CCC(=O)N1` [Compound 28, (S)-5-((((6-(3-(2-(3-(((1-acetylpiperidin-4-yl)amino)methyl)-1-methyl-1H-indol-6-yl)-3-chloropyridin-4-yl)-2-chlorophenyl)-2-methoxypyridin-3-yl)methyl)amino)methyl)pyrrolidin-2-one], for which the pIC50 in assay [1] was 8.92. The compound further gave a negative-log EC50 (pEC50) at human PD-L1 of 7.32.

The compound `COc1cc(-c2nccc(-c3cccc(-c4ccc([C@H](C)NC5CCN(C(C)=O)CC5)c(OC)n4)c3Cl)c2Cl)ccc1[C@H](C)NC1CCN(C(C)=O)CC1` [Example 599, 1-(4-(((S)-1-(6-(3-(2-(4-((S)-1-((1-Acetylpiperidin-4-yl)amino)ethyl)-3-methoxyphenyl)-3-chloropyridin-4-yl)-2-chlorophenyl)-2-methoxypyridin-3-yl)ethyl)amino)piperidin-1-yl)ethan-1-one] showed a negative logarithm of the IC50 (pIC50) in assay [1] of 9.00. The compound also showed a pEC50 on human PD-L1 of no more than 5.00.

With `COc1cc(-c2nccc(-c3cccc(-c4ccc(CN(C)C5CCN(C(C)=O)CC5)c(OC)n4)c3Cl)c2Cl)ccc1CNC1CCN(C(C)=O)CC1`, the negative logarithm of the IC50 (pIC50) in assay [1] was 8.51. The compound also showed a negative logarithm of the EC50 (pEC50) at human PD-L1 of 7.31.

`COc1cc(-c2nccc(-c3cccc(-c4ccc(CNC5CCN(C(C)=O)CC5)c(OC)n4)c3F)c2Cl)ccc1CNC1CCN(C(C)=O)CC1` [Example 439, 1-(4-(((6-(3-(2-(4-(((1-Acetylpiperidin-4-yl)amino)methyl)-3-methoxyphenyl)-3-chloropyridin-4-yl)-2-fluorophenyl)-2-methoxypyridin-3-yl)methyl)amino)piperidin-1-yl)ethan-1-one] showed a pIC50 in assay [1] of 8.56. In addition, the negative logarithm of the EC50 (pEC50) on human PD-L1 was 6.92.

Take `COc1nc(-c2cccc(-c3ccnc(-c4ccc5c(CN(C)CCO)cn(C)c5c4)c3Cl)c2Cl)ccc1CNC[C@@H]1CCC(=O)N1` [Compound 39, (S)-5-((((6-(2-chloro-3-(3-chloro-2-(3-(((2-hydroxyethyl)(methyl)amino)methyl)-1-methyl-1H-indol-6-yl)pyridin-4-yl)phenyl)-2-methoxypyridin-3-yl)methyl)amino)methyl)pyrrolidin-2-one]: the negative logarithm of the IC50 (pIC50) in assay [1] was 9.00. For the same compound, on human PD-L1, the negative-log EC50 (pEC50) is 7.21.

In the case of `COc1cc(-c2nccc(-c3cccc(-c4ccc(CNC[C@@H]5CCC(=O)N5)c(OC)n4)c3C(F)(F)F)c2Cl)ccc1CNC[C@@H]1CCC(=O)N1` [Example 610, (S)-5-((((6-(3-(3-Chloro-2-(3-methoxy-4-(((((S)-5-oxopyrrolidin-2-yl)methyl)amino)methyl)phenyl)pyridin-4-yl)-2-(trifluoromethyl)phenyl)-2-methoxypyridin-3-yl)methyl)amino)methyl)pyrrolidin-2-one], in assay [1], the negative logarithm of the IC50 (pIC50) is 8.82. This compound gave a pEC50 on human PD-L1 of 5.68.

In assay [1], `COc1cc(-c2nccc(-c3cccc(-c4cc(F)c(CNC[C@@H]5CCC(=O)N5)c(OC)n4)c3Cl)c2Cl)cc2c1CN(C[C@@H](C)O)CC2` [Compound 131, (S)-5-((((6-(2-chloro-3-(3-chloro-2-(2-((R)-2-hydroxypropyl)-8-methoxy-1,2,3,4-tetrahydroisoquinolin-6-yl)pyridin-4-yl)phenyl)-4-fluoro-2-methoxypyridin-3-yl)methyl)amino)methyl)pyrrolidin-2-one] showed a negative logarithm of the IC50 (pIC50) of 9.18. The compound further showed a negative logarithm of the EC50 (pEC50) on human PD-L1 of 7.45.

Take `COCC(=O)N1CCC(NCc2ccc(-c3nccc(-c4cccc(-c5ccc(CNC6CCN(C(=O)COC)CC6)c(OC)n5)c4Cl)c3Cl)cc2OC)CC1` [Example 397, 1-(4-(((6-(2-Chloro-3-(3-chloro-2-(3-methoxy-4-(((1-(2-methoxyacetyl)piperidin-4-yl)amino)methyl)phenyl)pyridin-4-yl)phenyl)-2-methoxypyridin-3-yl)methyl)amino)piperidin-1-yl)-2-methoxyethan-1-one]: the pIC50 in assay [1] was 9.89. This compound also gave a pEC50 on human PD-L1 of 8.24.

As to `COc1cc(-c2nccc(-c3cccc(-c4ccc(CNC[C@H](C)O)c(OC)n4)c3Cl)c2Cl)ccc1CNC[C@H](C)O` [Example 301, (S)-1-(((6-(2-Chloro-3-(3-chloro-2-(4-((((S)-2-hydroxypropyl)amino)methyl)-3-methoxyphenyl)pyridin-4-yl)phenyl)-2-methoxypyridin-3-yl)methyl)amino)propan-2-ol], in assay [1], the negative logarithm of the IC50 (pIC50) is 9.24. The same compound had a pEC50 on human PD-L1 of 7.71.

On to `COc1nc(-c2cccc(-c3ccnc(-c4ccc5c(CNC6CCS(=O)(=O)CC6)cn(C)c5c4)c3Cl)c2Cl)ccc1CNC[C@@H]1CCC(=O)N1` [Compound 43, (S)-5-((((6-(2-chloro-3-(3-chloro-2-(3-(((1,1-dioxidotetrahydro-2H-thiopyran-4-yl)amino)methyl)-1-methyl-1H-indol-6-yl)pyridin-4-yl)phenyl)-2-methoxypyridin-3-yl)methyl)amino)methyl)pyrrolidin-2-one], for which the pIC50 in assay [1] is 9.70. The pEC50 at human PD-L1 was 7.20.

As to `COc1nc(-c2cccc(-c3ccnc(-c4ccc(CNC5CCOCC5)c(OC(F)F)c4)c3Cl)c2Cl)ccc1CN1CC2(CNC(=O)C2)C1` [Example 685, 2-((6-(2-Chloro-3-(3-chloro-2-(3-(difluoromethoxy)-4-(((tetrahydro-2H-pyran-4-yl)amino)methyl)phenyl)pyridin-4-yl)phenyl)-2-methoxypyridin-3-yl)methyl)-2,6-diazaspiro[3.4]octan-7-one], in assay [1], the negative-log IC50 (pIC50) was 8.37. This compound also showed a pEC50 at human PD-L1 of 7.29.

In assay [1], `COc1cc(-c2nccc(-c3cccc(-c4cnc(CNC5CCN(C(C)=O)CC5)c(OC)c4)c3Cl)c2Cl)ccc1CNC1CCN(C(C)=O)CC1` [Example 565, 1-(4-(((5-(3-(2-(4-(((1-acetylpiperidin-4-yl)amino)methyl)-3-methoxyphenyl)-3-chloropyridin-4-yl)-2-chlorophenyl)-3-methoxypyridin-2-yl)methyl)amino)piperidin-1-yl)ethan-1-one] had a negative logarithm of the IC50 (pIC50) of 8.76. The same compound had a negative-log EC50 (pEC50) at human PD-L1 of 5.98.

On to `COc1cc(-c2nccc(-c3cccc(-c4ccc(CNC5CCN(C(=O)C6CC6)CC5)c(OC)n4)c3Cl)c2Cl)cc(F)c1CNC1CCN(C(=O)C2CC2)CC1` [Example 316, (4-(((6-(2-Chloro-3-(3-chloro-2-(4-(((1-(cyclopropanecarbonyl)piperidin-4-yl)amino)methyl)-3-fluoro-5-methoxyphenyl)pyridin-4-yl)phenyl)-2-methoxypyridin-3-yl)methyl)amino)piperidin-1-yl)(cyclopropyl)methanone], for which, in assay [1], the negative logarithm of the IC50 (pIC50) is 8.46. In addition, the negative logarithm of the EC50 (pEC50) at human PD-L1 is 7.34.

The compound `COc1cc(-c2nccc(-c3cccc(-c4ccc(CN5CC6(CNC(=O)C6)C5)c(OC)n4)c3Cl)c2Cl)cnc1CNC1CCOCC1` [Compound 548, 2-((6-(2-Chloro-3-(3-chloro-5′-methoxy-6′-(((tetrahydro-2H-pyran-4-yl)amino)methyl)-[2,3′-bipyridin]-4-yl)phenyl)-2-methoxypyridin-3-yl)methyl)-2,6-diazaspiro[3.4]octan-7-one] gave a negative logarithm of the IC50 (pIC50) in assay [1] of 8.95. The same compound gave a pEC50 on human PD-L1 of 7.12.

The values are drawn from patent US20240246964A1 (Arbutus Biopharma Corporation, priority 2021, published 2024).
